According to US12377092B2, “Polycomb inhibitors and uses thereof” (FONDAZIONE ISTITUTO FIRC DI ONCOLOGIA MOLECOLARE (IFOM), priority 2017, dated 2025):
Like-named read-outs stand apart in the source and are kept apart here.

How the values were obtained:
Assay type in all cases: cell-based, mouse
VE-cadherin and PECAM1 = assay: Real time analysis of VE-cadherin and Pecam1 transcripts, CCM1 knock out cells; details: PTC209
Method: (§1) RNA extraction was performed both with (A) RNeasy kits (Promega) or (B) RNAeasy Mini Kit (QIAGEN). The latter allows also the extraction of proteins from the same sample. The RNA (500 ng) was reverse transcribed with random hexamers (High Capacity cDNA Archive kits; Applied Biosystems) in a final volume of 30 uL. Reaction were made with a thermocycler (Eppendorf) 10 min at 25° C. followed by 2 hours at 37° C. cDNA (5 ng) was amplified in triplicate in a reaction volume of 15 uL using TaqMan Gene Expression Assays (Applied Biosystems) in a ABI/Prism 7900 HT using a pre PCR step of 10 min at 95° C., followed by 40 cycles of 15 seconds at 95° C. and 60 seconds at 60° C. For each sample, the expression level was determined with the comparative threshold cycle (Ct) method, and normalized to the housekeeping genes encoding 18S, glyceraldehyde-3-phosphate dehydrogenase (GAPDH) and hypoxanthine-guanine phosphoribosyltransferase (hprt1). Ct or threshold cycle, represents the PCR cycle at which an increase in reporter fluorescence above a base-line signal can first be detect.
Also for CCM1 model, the inventors tested the effect of Bmi1 inhibition on junction organisation. […]

[1] = test system: EndMT markers (Klf4, Sca1 and Fsp1); assay: RT-PCR of EndMT markers in wild type cells infected with lentivirus expressing LefΔN-β-catΔC; details: wild type cells infected with 40 ul LefΔN-β-catΔC lentivirus; PTC209 72 hours from nine days after infection
Method: as §1
One day before infection, 300.000 cells/well were seeded in a 6-wells plate in complete medium as described before.
The day after 40 uL per well of the concentrated virus was added to the cells medium and leaved overnight at 37° C. […]

[2] = test system: EndMT markers (Klf4, Sca1 and Fsp1); assay: Real time (RT-PCR) analysis of EndMT markers, wild type and CCM3 knock out immortalized lung endothelial cells; details: 72 hours
Method: (§2) Cells were seeded 6.3×10^4 cells/cm^2. The day after, PTC209 and UNC1999 were added to the confluent cells. Drugs were left for one or three days depending on the aim of the experiment. Final concentrations used for the two drugs were: 1 uM PTC209 and 5 uM UNC1999.
as §1
Wild type and CCM3 knock out cells were treated with either PTC209 or DMSO starting from the day after seeding, when cells were confluent. For this experiment cells were lysed for western blot and real-time analysis after 72 hours of treatment to check a long-term effect of PTC209.
To perform these experiments, immortalized lung endothelial cells both wild type and CCM3 knock out were treated, with the same experimental strategy used for PTC209, with UNC1999 for 72 hours and subsequently lysed for western blot and real time analysis. UNC1999 was used in its specific optimal concentration, which was different to PTC209. As control DMSO was given to the cells in a volume equal to the volume of DMSO in which UNC1999 was previously dissolved to rich the optimal concentration.
Briefly, wild type and CCM3 knock out cells were treated with either PTC209, UNC1999 or a combination of the two. PTC209 and UNC1999 were administrated at the same concentration used for the single treatment and DMSO was given as control in a volume equal to the sum of volumes of DMSO in which UNC1999 and PTC209 were previously dissolved.

[3] = test system: EndMT markers (Klf4, Sca1 and Fsp1); assay: RT-PCR of EndMT markers, freshly isolated brain endothelial cells knockout for CCM3; details: freshly isolated brain endothelial cells CCM3fl/fl+TAT-Cre; PTC209 72 hours from the day after recombination
Source text: Brain-derived ECs were isolated from VECPAC/CCM3^fl/fl/R26-Confetti. Brains were processed with two different MiltenyiBiotec kits depending on the age at which the mice were sacrificed: “Adult Brain Dissociation Kit”, for […] 7-days old mice, or “Neural Tissue Dissociation Kit” for less than 7-days old mice. All protocols and data sheet are available at www.milteniyibiotec.com.
Recombination of the loxP-flanked genes was induced by treating cells the day after the first splitting (1:2) with 100 ug/mL TAT-Cre-recombinase for 60 minutes in HyClone™ ADCF-MAb medium (GE Healthcare) without serum followed by 100 uM chloroquine for 30 minutes. The cells were washed with HyClone™ ADCF-MAb medium and cultured with complete medium.
RNA extraction was performed both with (A) RNeasy kits (Promega) or (B) RNAeasy Mini Kit (QIAGEN). The latter allows also the extraction of proteins from the same sample. […] For each sample, the expression level was determined with the comparative threshold cycle (Ct) method, and normalized to the housekeeping genes encoding 18S, glyceraldehyde-3-phosphate dehydrogenase (GAPDH) and hypoxanthine-guanine phosphoribosyltransferase (hprt1). Ct or threshold cycle, represents the PCR cycle at which an increase in reporter fluorescence above a base-line signal can first be detect. […]

LEF1 = assay: Immunofluorescence of LEF1, CCM3 knock out cells; details: PTC209 vs DMSO
Source text: The inventors started to analysed interaction between Bmi1 and β-catenin pathway. By immunofluorescence analysis on wild type and CCM3 knock out cells treated with PTC209 and DMSO as control, as already mentioned, the inventors checked expression of LEF1, a transcription factor that is directly activated by β-catenin and is responsible for transcriptional activation of Axin2 (Behrens et al., 1996), to see whether Bmi1 inhibition interfered with β-catenin pathway activation.

CCM3 knock out cells = test system: CCM3 knock out cells
Method: as §2
For immunofluorescence, cells were fixed in three different ways: with 4% PAF in PBS (followed by permeabilization with 0.5% Triton X-100 for 5 minutes); with 1% PAF in triethanolamine pH 7.5, containing 0.1% Triton X-100 and 0.1% NP-40 for 10 minutes at RT or in methanol for 5 minutes at […]. Blocking (1 hour, RT) were performed in PBS containing 2% BSA and 5% donkey serum. Primary (overnight, 4° C.) and secondary (50 minutes, RT) antibodies were incubated in PBS with 2% BSA.
To check the effect of Bmi1 on junctional organisation, both wild type and CCM3 knock out cells were treated with PTC209 with the same experimental conditions described before and subsequently analysed by immunofluorescence. In particular cells were stained for VE-cadherin and PECAM1 (FIG. 7).
Experiment with combined PTC209 and UNC1999 treatments was repeated with the same experimental conditions described before and junction organisation was analysed through VE-cadherin staining and protein expression analysis (FIG. 19).

Question: For `COc1cc(Br)c(Nc2nc(-c3c(C)nc4ncccn34)cs2)c(Br)c1` [PTC209, N-(2,6-dibromo-4-methoxyphenyl)-4-(2-methylimidazo[1,2-a]pyrimidin-3-yl)thiazol-2-amine], which “VE-cadherin and PECAM1 transcript levels (gene expression analysis)” value (VE-cadherin and PECAM1) is on record?
Answer: Its value is “did not show any rescue”.

Question: What about the “Sca1 and Fsp1 upregulation (RT-PCR)” value [1] of the same compound?
Answer: The value was “strongly reduced”.

Question: What about the “Klf4 transcript up-regulation induced by CCM3 deletion (real time analysis)” value ([2]; CCM3 knock out cells) of the same compound?
Answer: The value was “completely rescued”.

Question: What about the “Klf4, Sca1 and Fsp1 transcripts (real time analysis)” value ([2]; CCM3 knock out cells, 1 uM PTC209, 5 uM UNC1999, vs DMSO) of the same compound?
Answer: Its value is “downregulated”.

Question: What about the “Klf4 transcript (real time analysis)” value ([2]; wild type cells (physiological condition), CCM3 model) of the same compound?
Answer: The value was “not affected”.

Question: What about the “Klf4 expression (RT-PCR)” value [3] of the same compound?
Answer: The value was “not downregulated”.

Question: What about the “Sca1 and Fsp1 expression (RT-PCR)” value [3] of the same compound?
Answer: Its value is “strongly reduced”.

Question: And the “LEF1 (immunofluorescence)” value (LEF1)?
Answer: The value was “reduced”.

Question: And the “junctional organisation (VE-cadherin, PECAM1 immunostaining)” value (CCM3 knock out cells; CCM3 knock out cells)?
Answer: Its value is “did not rescue junctional disorganisation”.

Question: And the “junctional organisation (VE-cadherin, PECAM1 immunostaining)” value (CCM3 knock out cells; wild type cells, CCM3 model)?
Answer: Its value is “did not disturb junction organisation”.
